Experimental data: article PMC3692398 (Biochemical pharmacology, 2013)
Where two headings read alike, the source gives them in different places.

What was measured:
[1] = biological target: T1, h5-HT2A receptor (Homo sapiens, UniProt P28223); conditions: data not shown
[2] = biological target: T2, hVMAT2 (Homo sapiens, UniProt Q05940); assay: Superfusion release of preloaded [3H]NE from HEK-hVMAT2 cells; type: cell-based
[3] = biological target: T3, hDAT (Homo sapiens, UniProt Q01959); assay: Inhibition of [3H]DA uptake, intact HEK-hDAT cells; type: cell-based; conditions: for ratio of binding Ki to uptake IC50, hDAT: [125I]RTI-55 Ki / [3H]DA uptake IC50
[4] = biological target: T3, hDAT; assay: Inhibition of [125I]RTI-55 binding, HEK-hDAT membranes
[5] = biological target: T4, h5-HT2C receptor (Homo sapiens, UniProt P28335); type: cell-based; conditions: data not shown
T4 sequence (P28335 33-458): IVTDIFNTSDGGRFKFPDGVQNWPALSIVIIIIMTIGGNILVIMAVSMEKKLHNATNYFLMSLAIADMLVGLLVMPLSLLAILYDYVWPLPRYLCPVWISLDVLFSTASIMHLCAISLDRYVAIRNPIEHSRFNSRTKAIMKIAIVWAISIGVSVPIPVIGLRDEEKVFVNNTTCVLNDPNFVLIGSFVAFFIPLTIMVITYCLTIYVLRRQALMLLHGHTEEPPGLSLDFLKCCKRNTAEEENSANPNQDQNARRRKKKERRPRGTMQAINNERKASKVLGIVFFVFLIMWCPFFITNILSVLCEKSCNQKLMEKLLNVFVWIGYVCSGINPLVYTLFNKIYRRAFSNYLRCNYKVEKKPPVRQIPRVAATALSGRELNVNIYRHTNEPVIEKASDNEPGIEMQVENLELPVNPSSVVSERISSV

[6] = biological target: T1, h5-HT2A receptor; assay: Inhibition of 5-HT-stimulated IP-1 formation; type: cell-based; conditions: for h5-HT2A Inhibition of 5-HT-stimulated IP-1 formation % maximum inhibition ± sem: normalized to maximal inhibition by ketanserin (10 µM)
[7] = biological target: T5, hNET (Homo sapiens, UniProt P23975); assay: biochemical; type: binding
[8] = biological target: T6, human D4.4 receptor (Homo sapiens, UniProt P21917); type: binding; conditions: test drugs up to 10 µM; words give concentration range, 'low' = low nanomolar
T6 sequence (P21917 1-419): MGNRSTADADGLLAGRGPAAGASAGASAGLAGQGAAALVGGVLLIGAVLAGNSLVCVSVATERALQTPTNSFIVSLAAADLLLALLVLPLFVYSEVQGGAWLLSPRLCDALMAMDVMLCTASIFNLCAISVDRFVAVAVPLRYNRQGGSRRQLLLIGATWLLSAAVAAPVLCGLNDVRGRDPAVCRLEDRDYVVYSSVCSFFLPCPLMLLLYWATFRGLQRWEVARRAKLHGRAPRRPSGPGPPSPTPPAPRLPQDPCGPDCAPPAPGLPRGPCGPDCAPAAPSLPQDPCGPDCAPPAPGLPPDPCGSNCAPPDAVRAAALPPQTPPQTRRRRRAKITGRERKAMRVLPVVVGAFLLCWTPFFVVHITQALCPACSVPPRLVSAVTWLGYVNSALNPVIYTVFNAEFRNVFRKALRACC

[9] = biological target: T7, hSERT (Homo sapiens, UniProt P31645); assay: Inhibition of [3H]5-HT uptake, intact HEK-hSERT cells; type: cell-based; conditions: for ratio of binding Ki to uptake IC50, hSERT: [125I]RTI-55 Ki / [3H]5-HT uptake IC50
[10] = biological target: T7, hSERT; assay: Superfusion release of preloaded [3H]5-HT from HEK-hSERT cells; type: cell-based
[11] = biological target: T2, hVMAT2; assay: Inhibition of [3H]5-HT uptake, HEK-hVMAT2 membrane preparation; type: biochemical
[12] = biological target: human DA D2 receptor (Homo sapiens, UniProt P14416); type: binding; conditions: test drugs up to the maximal concentration tested (10 µM)
[13] = biological target: T4, h5-HT2C receptor; assay: biochemical; type: binding
[14] = biological target: T5, hNET; assay: Superfusion release of preloaded [3H]NE from HEK-hNET cells; type: cell-based; conditions: for % maximum release ± sem, hNET [3H]NE: relative to maximal AUC induced by METH (0.3 or 1 µM)
[15] = biological target: human DA D1 receptor (Homo sapiens, UniProt P21728); assay: [3H]SCH23390 binding, LhD1 cells; conditions: test drugs up to the maximal concentration tested (10 µM)
[16] = biological target: hSigma1 receptor (Homo sapiens, UniProt Q99720); assay: [3H]; type: binding
[17] = biological target: T5, hNET; assay: cell-based; type: cell-based; conditions: for ratio of binding Ki to uptake IC50, hNET: [125I]RTI-55 Ki / [3H]NE uptake IC50
[18] = biological target: T8, h5-HT1A receptor (Homo sapiens, UniProt P08908); assay: Stimulation of [35S]GTPγS binding, HEK-h5-HT1A membranes; type: biochemical
T8 sequence (P08908 1-422): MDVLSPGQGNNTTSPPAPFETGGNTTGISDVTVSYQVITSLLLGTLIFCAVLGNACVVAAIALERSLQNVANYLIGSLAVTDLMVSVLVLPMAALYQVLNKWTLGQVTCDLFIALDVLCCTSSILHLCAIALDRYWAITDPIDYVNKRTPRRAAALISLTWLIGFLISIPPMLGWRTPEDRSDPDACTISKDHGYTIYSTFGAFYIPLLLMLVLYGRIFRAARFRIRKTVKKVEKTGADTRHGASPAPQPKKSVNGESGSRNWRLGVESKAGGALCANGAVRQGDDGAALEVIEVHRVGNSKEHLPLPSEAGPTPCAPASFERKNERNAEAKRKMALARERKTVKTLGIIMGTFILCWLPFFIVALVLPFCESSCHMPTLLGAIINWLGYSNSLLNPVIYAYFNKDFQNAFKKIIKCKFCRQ

[19] = biological target: human DA D3 receptor (Homo sapiens, UniProt P35462); assay: [3H]YM-09151-2 binding, CHOp-D3 cells; conditions: test drugs up to 10 µM; words give concentration range, 'low' = low nanomolar
[20] = biological target: T8, h5-HT1A receptor; assay: [3H]8-OH-DPAT binding, HEK-h5-HT1A
[21] = biological target: T4, h5-HT2C receptor; assay: Inhibition of 5-HT-stimulated IP-1 formation; type: cell-based; conditions: for h5-HT2C Inhibition of 5-HT-stimulated IP-1 formation % maximum inhibition ± sem: 100 nM 5-HT, normalized to maximal inhibition by SB242084 (1 µM)
[22] = biological target: T3, hDAT; assay: Superfusion release of preloaded [3H]DA from HEK-hDAT cells; type: cell-based
[23] = biological target: T1, h5-HT2A receptor; assay: [125I]DOI binding, HEK-h5-HT2A
[24] = biological target: T2, hVMAT2; assay: Inhibition of [3H]DHTB binding, HEK-hVMAT2 membranes
[25] = blood from heart, periphery, and femoral veins; postmortem cases; ref [32];[33];[34]; cited from earlier work
[26] = biological target: T7, hSERT; assay: Inhibition of [125I]RTI-55 binding, HEK-hSERT membranes

T2 sequence (Q05940 whole entry, the tested form may be a part): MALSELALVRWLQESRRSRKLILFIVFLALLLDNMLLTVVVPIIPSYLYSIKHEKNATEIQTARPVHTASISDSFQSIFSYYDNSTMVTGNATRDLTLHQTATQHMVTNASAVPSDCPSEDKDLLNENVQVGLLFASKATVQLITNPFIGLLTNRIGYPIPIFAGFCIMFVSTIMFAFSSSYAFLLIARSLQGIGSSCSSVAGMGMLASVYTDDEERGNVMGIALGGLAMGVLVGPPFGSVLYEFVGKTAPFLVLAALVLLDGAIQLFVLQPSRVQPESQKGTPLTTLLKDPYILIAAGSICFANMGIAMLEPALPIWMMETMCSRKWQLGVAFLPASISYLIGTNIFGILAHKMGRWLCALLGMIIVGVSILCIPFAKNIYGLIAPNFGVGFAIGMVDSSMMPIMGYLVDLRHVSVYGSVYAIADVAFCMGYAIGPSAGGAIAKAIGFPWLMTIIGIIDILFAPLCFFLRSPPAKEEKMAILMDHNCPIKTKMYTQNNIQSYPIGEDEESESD
T1 sequence (P28223 whole entry, the tested form may be a part): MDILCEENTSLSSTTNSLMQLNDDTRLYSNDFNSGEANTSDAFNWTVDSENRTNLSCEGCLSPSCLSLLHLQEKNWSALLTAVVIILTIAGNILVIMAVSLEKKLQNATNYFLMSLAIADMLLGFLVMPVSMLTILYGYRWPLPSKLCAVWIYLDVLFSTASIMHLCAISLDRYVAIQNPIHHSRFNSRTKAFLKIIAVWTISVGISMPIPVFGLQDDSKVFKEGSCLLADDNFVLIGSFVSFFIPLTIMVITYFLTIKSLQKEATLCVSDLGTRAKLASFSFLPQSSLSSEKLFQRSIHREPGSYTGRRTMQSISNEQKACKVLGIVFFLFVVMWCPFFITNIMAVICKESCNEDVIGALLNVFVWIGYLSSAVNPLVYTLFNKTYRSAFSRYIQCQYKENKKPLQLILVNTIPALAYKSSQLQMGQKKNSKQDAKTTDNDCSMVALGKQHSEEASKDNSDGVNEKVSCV
T5 sequence (P23975 whole entry): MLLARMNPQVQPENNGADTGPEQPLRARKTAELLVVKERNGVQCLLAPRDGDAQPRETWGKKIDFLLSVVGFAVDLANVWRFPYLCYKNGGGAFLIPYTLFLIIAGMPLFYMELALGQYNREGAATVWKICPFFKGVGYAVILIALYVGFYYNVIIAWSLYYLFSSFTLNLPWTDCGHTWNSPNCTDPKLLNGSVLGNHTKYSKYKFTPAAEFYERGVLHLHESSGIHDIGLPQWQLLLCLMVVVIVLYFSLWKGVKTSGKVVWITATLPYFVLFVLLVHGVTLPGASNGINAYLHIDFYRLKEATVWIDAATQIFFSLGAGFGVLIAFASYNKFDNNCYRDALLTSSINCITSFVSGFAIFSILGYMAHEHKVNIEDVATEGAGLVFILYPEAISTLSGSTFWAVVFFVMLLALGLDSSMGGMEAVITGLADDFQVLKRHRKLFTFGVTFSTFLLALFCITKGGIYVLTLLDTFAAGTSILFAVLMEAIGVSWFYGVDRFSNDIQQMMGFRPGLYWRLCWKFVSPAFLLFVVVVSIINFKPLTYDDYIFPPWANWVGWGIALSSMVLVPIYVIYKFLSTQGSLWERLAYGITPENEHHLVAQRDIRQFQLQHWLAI
T7 sequence (P31645 whole entry, the tested form may be a part): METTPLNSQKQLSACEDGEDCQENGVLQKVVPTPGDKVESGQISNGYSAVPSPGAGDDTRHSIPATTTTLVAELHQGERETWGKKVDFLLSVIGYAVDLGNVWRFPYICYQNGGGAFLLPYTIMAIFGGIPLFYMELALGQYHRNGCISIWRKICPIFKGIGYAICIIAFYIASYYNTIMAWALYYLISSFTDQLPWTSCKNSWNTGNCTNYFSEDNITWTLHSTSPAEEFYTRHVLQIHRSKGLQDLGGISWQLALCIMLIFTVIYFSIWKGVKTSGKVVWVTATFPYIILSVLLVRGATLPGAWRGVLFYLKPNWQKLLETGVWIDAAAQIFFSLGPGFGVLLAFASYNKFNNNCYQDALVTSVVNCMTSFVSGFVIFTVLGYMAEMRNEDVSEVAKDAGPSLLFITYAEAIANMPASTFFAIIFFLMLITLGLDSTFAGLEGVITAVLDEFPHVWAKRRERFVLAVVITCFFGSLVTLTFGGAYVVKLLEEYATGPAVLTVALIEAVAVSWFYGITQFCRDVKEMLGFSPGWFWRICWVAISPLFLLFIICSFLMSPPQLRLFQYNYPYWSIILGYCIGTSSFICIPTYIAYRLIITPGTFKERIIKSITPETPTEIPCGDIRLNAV
T3 sequence (Q01959 whole entry): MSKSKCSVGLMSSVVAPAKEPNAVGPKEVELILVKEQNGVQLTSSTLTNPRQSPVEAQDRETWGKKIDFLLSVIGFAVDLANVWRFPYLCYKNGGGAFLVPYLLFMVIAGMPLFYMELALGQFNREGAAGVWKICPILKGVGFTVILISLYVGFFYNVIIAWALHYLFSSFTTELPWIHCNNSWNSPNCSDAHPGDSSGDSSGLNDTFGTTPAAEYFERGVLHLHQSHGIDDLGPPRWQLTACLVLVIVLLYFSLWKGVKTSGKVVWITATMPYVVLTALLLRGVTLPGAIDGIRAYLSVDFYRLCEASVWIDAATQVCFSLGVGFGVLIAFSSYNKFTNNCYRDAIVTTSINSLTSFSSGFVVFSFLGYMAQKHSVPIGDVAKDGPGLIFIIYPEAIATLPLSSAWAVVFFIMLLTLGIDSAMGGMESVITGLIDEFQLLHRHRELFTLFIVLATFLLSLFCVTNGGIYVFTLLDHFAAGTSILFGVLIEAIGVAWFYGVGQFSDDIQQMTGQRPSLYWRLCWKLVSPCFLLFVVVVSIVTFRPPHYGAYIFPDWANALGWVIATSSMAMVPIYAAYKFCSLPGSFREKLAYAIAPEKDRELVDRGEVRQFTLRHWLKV
Sequence of hSigma1 receptor (Q99720 whole entry): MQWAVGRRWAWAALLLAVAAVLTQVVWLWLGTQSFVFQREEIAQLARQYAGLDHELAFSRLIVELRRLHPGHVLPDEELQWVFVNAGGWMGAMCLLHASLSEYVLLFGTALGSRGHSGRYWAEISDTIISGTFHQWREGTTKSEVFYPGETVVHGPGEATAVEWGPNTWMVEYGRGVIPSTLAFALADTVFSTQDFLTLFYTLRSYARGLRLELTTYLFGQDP
Sequence of human DA D3 receptor (P35462 whole entry): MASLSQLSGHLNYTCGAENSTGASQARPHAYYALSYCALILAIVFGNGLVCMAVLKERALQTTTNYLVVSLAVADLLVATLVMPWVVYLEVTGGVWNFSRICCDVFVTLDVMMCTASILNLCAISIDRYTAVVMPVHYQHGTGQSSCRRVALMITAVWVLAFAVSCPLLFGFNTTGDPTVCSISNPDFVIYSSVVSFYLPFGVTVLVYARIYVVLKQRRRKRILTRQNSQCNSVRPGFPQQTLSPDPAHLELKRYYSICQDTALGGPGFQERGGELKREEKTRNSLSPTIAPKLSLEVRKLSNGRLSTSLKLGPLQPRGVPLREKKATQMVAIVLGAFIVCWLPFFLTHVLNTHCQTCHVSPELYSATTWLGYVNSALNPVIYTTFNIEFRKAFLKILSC
Sequence of human DA D2 receptor (P14416 whole entry): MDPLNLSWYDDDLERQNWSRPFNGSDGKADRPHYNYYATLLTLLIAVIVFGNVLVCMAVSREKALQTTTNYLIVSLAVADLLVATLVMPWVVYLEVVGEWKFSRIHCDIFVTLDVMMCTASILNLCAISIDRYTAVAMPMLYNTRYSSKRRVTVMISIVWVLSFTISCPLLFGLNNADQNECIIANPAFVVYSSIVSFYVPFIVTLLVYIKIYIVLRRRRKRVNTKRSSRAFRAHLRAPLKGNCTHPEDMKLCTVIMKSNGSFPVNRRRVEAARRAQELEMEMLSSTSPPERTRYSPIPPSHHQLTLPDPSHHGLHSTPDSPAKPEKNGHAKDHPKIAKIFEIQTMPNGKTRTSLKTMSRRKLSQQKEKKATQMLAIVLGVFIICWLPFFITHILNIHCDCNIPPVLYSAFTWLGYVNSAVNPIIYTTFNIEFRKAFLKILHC
Sequence of human DA D1 receptor (P21728 whole entry): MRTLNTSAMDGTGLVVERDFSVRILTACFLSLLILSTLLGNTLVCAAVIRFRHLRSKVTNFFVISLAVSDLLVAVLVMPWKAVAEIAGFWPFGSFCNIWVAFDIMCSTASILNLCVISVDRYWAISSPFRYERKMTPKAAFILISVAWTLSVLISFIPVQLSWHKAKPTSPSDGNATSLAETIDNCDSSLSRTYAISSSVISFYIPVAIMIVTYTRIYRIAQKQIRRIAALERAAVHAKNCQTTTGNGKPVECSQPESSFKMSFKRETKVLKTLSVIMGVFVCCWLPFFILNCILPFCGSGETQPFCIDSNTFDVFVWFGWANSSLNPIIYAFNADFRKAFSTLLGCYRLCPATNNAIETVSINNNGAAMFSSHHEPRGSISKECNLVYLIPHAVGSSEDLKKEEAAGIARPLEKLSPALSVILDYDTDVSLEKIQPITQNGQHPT

NCCc1c[nH]c2ccc(O)cc12 [5-HT, 5-hydroxy-tryptamine]
h5-HT2A agonist activity, inositol monophosphate [1]: full agonists with potencies in the low nanomolar range

CCN(CC)C(=O)[C@@H]1C=C2c3cccc4[nH]cc(c34)C[C@H]2N(C)C1 [LSD, lysergic acid diethylamide]
h5-HT2A agonist activity, inositol monophosphate [1]: full agonists with potencies in the low nanomolar range

CNC(C)C(=O)c1ccccc1 (stereo not shown) [Methcathinone, methcathinone, reference compound]
Release of [3H]NE % maximum release ± sem or range, hVMAT2 [2]: 42 ± 10% | EC50 ([2]; read-out: Drug-induced release of [3H]NE EC50 ± sem, hVMAT2, superfusion): 11.6 ± 7.3 µM | ratio of binding Ki to uptake IC50, hDAT [3]: 23 | IC50 ([3]; read-out: Inhibition of [3H]neurotransmitter uptake IC50 ± sem, hDAT [3H]DA, 20 nM [3H]DA, intact cells): 0.144 ± 0.032 µM | Ki ([4]; read-out: Inhibition of [125I]RTI-55 binding Ki ± sem, hDAT, HEK-hDAT membranes): 3.3 ± 1.1 µM | h5-HT2C agonist activity, inositol monophosphate [5]: partial agonists with midmicromolar potencies | h5-HT2A Inhibition of 5-HT-stimulated IP-1 formation % maximum inhibition ± sem ([6]; 100 nM 5-HT): 99.63 ± 0.37% | IC50 ([6]; read-out: h5-HT2A Inhibition of 5-HT-stimulated IP-1 formation IC50 ± sem, 100 nM 5-HT): 40 ± 9.5 µM | Ki ([7]; read-out: Inhibition of [125I]RTI-55 binding Ki ± sem, hNET, HEK-hNET membranes): 4.48 ± 0.49 µM | affinity for the [3H]YM-09151-2 binding site, DA D4.4 receptor [8]: no measurable affinity | ratio of binding Ki to uptake IC50, hSERT [9]: > 7.4 | IC50 ([9]; read-out: Inhibition of [3H]neurotransmitter uptake IC50 ± sem, hSERT [3H]5-HT, 20 nM [3H]5-HT, intact cells): 13.5 ± 2.9 µM | EC50 ([10]; read-out: Drug-induced release of [3H]neurotransmitter EC50 ± sem, hSERT [3H]5-HT, superfusion, AUC): > 100 µM | % maximum release ± sem, hSERT [3H]5-HT ([10]; relative to maximal AUC induced by PCA (10 µM)): 21.1 ± 9.8% | IC50 ([11]; read-out: Inhibition of [3H]5-HT uptake IC50 ± sem, hVMAT2, 40 nM [3H]5-HT, 2 mM MgATP): 117 ± 57 µM | affinity for the [3H]YM-09151-2 binding site, DA D2 receptor [12]: no measurable affinity | Ki ([13]; read-out: Inhibition of radioligand binding Ki ± sem, h5-HT2C [125I]DOI): 16 ± 4.2 µM | EC50 ([14]; read-out: Drug-induced release of [3H]neurotransmitter EC50 ± sem, hNET [3H]NE, superfusion, AUC): 0.228 ± 0.066 µM | % maximum release ± sem, hNET [3H]NE [14]: 149 ± 42% | affinity for the [3H]SCH23390 binding site, DA D1 receptor [15]: no measurable affinity | Ki ([16]; read-out: Inhibition of [3H]pentazocine binding Ki ± sem, hSigma1): 117 ± 40 µM | ratio of binding Ki to uptake IC50, hNET [17]: 144 | IC50 ([17]; read-out: Inhibition of [3H]neurotransmitter uptake IC50 ± sem, hNET [3H]NE, 20 nM [3H]NE, intact cells): 0.0311 ± 0.0051 µM | h5-HT1A Stimulation of [35S]GTPγS binding % maximum stimulation ± sem ([18]; normalized to the maximal stimulation by 5-HT): 52.8 ± 6.2% | EC50 ([18]; read-out: h5-HT1A Stimulation of [35S]GTPγS binding EC50 ± sem): 49 ± 21 µM | affinity for the [3H]YM-09151-2 binding site, DA D3 receptor [19]: no measurable affinity | Ki ([20]; read-out: Inhibition of radioligand binding Ki ± sem, h5-HT1A [3H]8OH-DPAT): 29.1 ± 3.6 µM | h5-HT2C Inhibition of 5-HT-stimulated IP-1 formation % maximum inhibition ± sem [21]: 17.5 ± 4.0% | % maximum release ± sem, hDAT [3H]DA [22]: 83.3 ± 4.9% | EC50 ([22]; read-out: Drug-induced release of [3H]neurotransmitter EC50 ± sem, hDAT [3H]DA, superfusion, AUC): 3.57 ± 0.68 µM | Ki ([23]; read-out: Inhibition of radioligand binding Ki ± sem, h5-HT2A [125I]DOI): 29.2 ± 3.3 µM

CNC(C)C(=O)c1ccc2c(c1)OCO2 (stereo not shown) [Methylone, 3,4-methylenedioxy-N-methylcathinone]
EC50 [2]: > 100 µM | Release of [3H]NE % maximum release ± sem or range, hVMAT2 [2]: 21.8 ± 8.5% | Release of [3H]NE % maximum release ± sem or range, hVMAT2 ([2]; listed as methylone): less than 35% | IC50 [3]: 0.343 ± 0.024 µM | ratio of binding Ki to uptake IC50, hDAT [3]: 15 | Ki [4]: 5.02 ± 0.29 µM | Ki [24]: > 1000 µM | postmortem blood concentration [25]: 0.06 to 3.3 mg/L | postmortem blood concentration (molar) [25]: 0.25 to 14 µM | IC50 [6]: 159 ± 11 µM | h5-HT2A Inhibition of 5-HT-stimulated IP-1 formation % maximum inhibition ± sem ([6]; 100 nM 5-HT): 84.7 ± 5.2% | Ki [7]: 16.5 ± 4.9 µM | IC50 [9]: 1.92 ± 0.35 µM | ratio of binding Ki to uptake IC50, hSERT [9]: 50 | % maximum release ± sem, hSERT [3H]5-HT [10]: 78 ± 18% | EC50 [10]: 6.7 ± 2.78 µM | time of peak [3H]5-HT release after addition of drug [10]: about 6 min | IC50 [11]: > 100 µM | Ki [13]: 10.6 ± 1.8 µM | EC50 [14]: 0.426 ± 0.067 µM | time of peak [3H]NE release after addition of drug [14]: 8 to 16 min | % maximum release ± sem, hNET [3H]NE [14]: 122 ± 32% | Ki [26]: 95.5 ± 4.3 µM | Ki ([16]; Inhibition of [3H]pentazocine binding Ki ± sem, hSigma1): 25.5 ± 7.7 µM | IC50 [17]: 0.234 ± 0.055 µM | ratio of binding Ki to uptake IC50, hNET [17]: 71 | EC50 [18]: 143 ± 32 µM | Emax ([18]; read-out: h5-HT1A Stimulation of [35S]GTPγS binding % maximum stimulation ± sem): 47% | Ki [20]: 63.3 ± 0.98 µM | IC50 [21]: > 1000 µM | h5-HT2C Inhibition of 5-HT-stimulated IP-1 formation % maximum inhibition ± sem [21]: 28.0 ± 7.5% | % maximum release ± sem, hDAT [3H]DA [22]: 41 ± 12% | EC50 [22]: 11.8 ± 5.6 µM | time of peak/maximal [3H]DA release after addition of drug ([22]; 4-FMC 10 µM to 300 µM, mephedrone 30 µM, methylone 100 µM): ≤ 6 min | fold less potent than METH to induce [3H]DA release ([22]; EC50 compared to METH): 30 fold | % maximum release ± sem, hDAT [3H]DA ([22]; listed as methylone): 41% | Ki [23]: 48.5 ± 8 µM
